Assay results: patent US11407725B2 (The Board of Trustees of the University of Illinois, priority 2018, dated 2022)
Where two headings read alike, the source gives them in different places.

Assays:
ALDH1A1 [1] = target: T1, ALDH1A1 (Homo sapiens, UniProt P00352); assay: ALDH isoform selectivity of red probes: ALDH1A1; assay type: biochemical; details: for Enzyme Activity 1A1 / Enzymatic Turn On: Table 2; for Enzymatic Turn On: ALDH1A1, 2 μM dye
T1 construct: made in house
T1 sequence (P00352 1-501): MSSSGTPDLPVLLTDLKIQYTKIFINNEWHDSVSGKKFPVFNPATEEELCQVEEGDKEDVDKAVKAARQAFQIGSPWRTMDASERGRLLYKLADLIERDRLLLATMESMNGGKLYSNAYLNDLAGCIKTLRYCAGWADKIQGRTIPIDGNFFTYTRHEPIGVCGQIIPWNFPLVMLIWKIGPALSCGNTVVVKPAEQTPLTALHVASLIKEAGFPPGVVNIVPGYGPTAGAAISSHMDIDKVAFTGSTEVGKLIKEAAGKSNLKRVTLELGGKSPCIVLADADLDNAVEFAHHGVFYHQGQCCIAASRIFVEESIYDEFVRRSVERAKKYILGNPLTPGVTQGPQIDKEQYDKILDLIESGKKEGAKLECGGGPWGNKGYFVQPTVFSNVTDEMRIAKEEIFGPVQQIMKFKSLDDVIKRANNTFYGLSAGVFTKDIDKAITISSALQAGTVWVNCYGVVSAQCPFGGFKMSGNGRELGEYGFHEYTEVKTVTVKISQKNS
Experimental: (§1) Each ALDH isoform was added to a 50 mM triethanolamine solution (pH 7.4) containing 2.0 mM NAD^+ and 100 μM substrate at room temperature. Benzaldehyde was the substrate for ALDH3A1. Propanal was the substrate for all other isoforms. ALDH isoform activity was determined by monitoring the rate of NADH production through the increase in absorbance at 340 nm (ε=6220 M^−1cm^−1). For these assays, 1 unit is defined as the amount of enzyme that catalyzes the conversion of […] per minute. For every combination of dye and enzyme, 2 μM dye was preincubated with 2.0 mM NAD^+ in 50 mM triethanolamine solution (pH 7.4). The reaction was initiated by addition of 1 unit of ALDH. Dyes were excited at 590 nm, and fluorescence was measured continuously at 610 nm.

[2] = Photophysical properties (absorbance, emission, extinction coefficient, quantum yield); assay type: physicochemical; details: for Quantum Yield: Probes 1-8
ALDH1A3 = target: T2, ALDH1A3 (Homo sapiens, UniProt P47895); assay: ALDH isoform selectivity of red probes: ALDH1A3; assay type: biochemical; details: for Enzyme Activity 1A3: Table 2
T2 construct: made in house
T2 sequence (P47895 1-512): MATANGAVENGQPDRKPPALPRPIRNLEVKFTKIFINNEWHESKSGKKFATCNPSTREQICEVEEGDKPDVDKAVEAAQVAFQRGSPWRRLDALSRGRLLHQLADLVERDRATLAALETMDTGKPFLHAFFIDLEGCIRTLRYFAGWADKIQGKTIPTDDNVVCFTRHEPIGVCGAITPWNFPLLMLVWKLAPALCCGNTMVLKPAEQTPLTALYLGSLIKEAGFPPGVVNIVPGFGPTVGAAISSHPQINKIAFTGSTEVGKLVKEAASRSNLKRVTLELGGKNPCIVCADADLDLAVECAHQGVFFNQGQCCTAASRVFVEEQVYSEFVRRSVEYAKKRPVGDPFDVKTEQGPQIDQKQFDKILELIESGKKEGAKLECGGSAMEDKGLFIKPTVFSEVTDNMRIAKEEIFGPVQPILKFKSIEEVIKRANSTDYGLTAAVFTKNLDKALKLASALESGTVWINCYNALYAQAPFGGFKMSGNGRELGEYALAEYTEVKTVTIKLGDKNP
Experimental: as §1

ALDH1A1 [3] = target: T1, ALDH1A1; assay: Fluorescence turn-on of AlDeSense with recombinant ALDH1A1; assay type: biochemical; details: fluorescent enhancement when treated with ALDH1A1; 1 μM probe
Experimental: Activation of AlDeSense was assessed using 20 units of each ALDH isoform. Activity was determined by activity measurements using each isoform's preferred substrate (1 unit=1 μmol substrate turned over/mol enzyme/min). Further details are in the supplementary information. All enzymatic reactions were performed in 50 mM triethanolamine buffer (pH 7.4, Thermo Fisher) with 2.5 mM NAD+(Alfa Aesar) and 5% v/v DMSO (Thermo Fisher) in a 1 mL quartz cuvette at room temperature.
AlDeSense activation was determined using fluorescence. Immediately before measurement, AlDeSense (1 μM) was added to a quartz cuvette. After vigorous mixing, the reaction was monitored at room temperature for 15 min. Fluorescence spectra were acquired according to following parameters: λex=498 nm, and emission range=505-580 nm. All scans were normalized to the signal from AlDeSense in 50 mM TEA and 2.5 mM NAD+(without enzyme). Endpoint measurements at 15 min were performed in triplicate and reported as the averages±standard deviation.

[4] = system: e-CSC and non-CSC B16F0 tumors; assay: In vivo melanoma tumor fluorescence imaging; design: species or system mice; details: 1 and 2 weeks
K562 cells = assay: Trypan blue cytotoxicity / viability assay; assay type: cell-based
Experimental: K562 cells were plated in a 96-well plate with 50,000 cells per well. Each well was filled to a final volume of 100 μL IMDM media with 0.25% DMSO. Wells were tested using red-AlDeSense or Ctrl-red-AlDeSense (1 μM and 5 μM each) or using a DMSO control. After 6-, 12-, and 24-hour incubation periods at 37° C. and 5% CO2, a 10 μL sample was removed from each condition and combined with 10 μL 0.4% w/v trypan blue in PBS. Samples were incubated for 3 minutes at room temperature before being loaded on a hemocytometer where live and dead cells were counted. Conditions were tested in triplicate for each time point. Samples were analyzed on an EVOS digital inverted microscope using transmitted white light for brightfield imaging and the Cy5 filter cube for trypan blue visualization.
K562 cells were plated in a 96-well plate at a density of 500,000 cells/mL in full IMDM media supplemented with either 1 μM or […] AlDeSense AM. Equivalent samples were supplemented with 1 μM or […] as a vehicle control. At 6, 12, and 24 hours, a 10 μL sample was removed from each of the samples and mixed 1:1 with a 0.4% wt/volume trypan blue solution in PBS. Samples were incubated for 1 minute at room temperature before being loaded onto a hemocytometer where live and dead cells were counted. Each sample was made in triplicate for each time point.

Log D7.4 = assay type: physicochemical; details: pH 7.4
[5] = system: e-CSC and non-CSC melanoma lung metastases; assay: Ex vivo lung metastases imaging; assay type: in vivo, mice; details: lungs perfused ex vivo, day 7 and 11
Experimental: Six to eight-week-old female C57BL/6J mice were purchased from Jackson Laboratory. Experimental metastases were established by injecting 2×10^5 melanoma cells via lateral tail vein injection. Mice were euthanized at either 7- or 11-days post injection. Immediately after euthanization, their lungs were excised and perfused with about 1 mL of either 15 μM AlDeSense AM or 15 μM Ctrl-AlDeSense AM in PBS. Outer portions of the lungs were rinsed in 15 mL of PBS to remove blood or excess dyes. After 2 hours incubation at room temperature (25° C.), the lungs were imaged on the IVIS spectrum imaging system (Perkin Elmer). Data was processed using Living Image software (Version 4.1).

[6] = pKa determination (pH profile of fluorescence); details: Britton-Robinson buffer
Experimental: The fluorescence of 1 μM of each compound was measured in 40 mM Britton-Robinson buffer at pH 2-9 in 0.5 pH intervals. Each measurement was performed in triplicate. […] Error bars are ±standard deviation (SD).

[7] = Stability of the fluorophore against water-mediated decomposition; assay type: physicochemical
ALDH1A1 kinetics [8] = substrate: Cc1cc(C=O)ccc1-c1c2cc(F)c(=O)cc-2oc2cc(O)c(F)cc12; assay: ALDH1A1 kinetics; assay type: biochemical, human; details: other: ALDH1A1, identical conditions; pH 7.4
Experimental: (§2) Solutions were prepared of 2.0 mM NAD+ and 0.1-2.5 μM AlDeSense or red-AlDeSense in 50 mM triethanolamine solution (pH 7.4). For every concentration, 1 unit of enzyme (as defined and determined in ALDH Isoform Selectivity) was added. Fluorescence was monitored for 30 seconds to determine V0. AlDeSense was excited at 490 nm and monitored at 510 nm. Red-AlDeSense was excited at 590 nm and monitored at 610 nm. Each condition was performed in triplicate. Protein concentration was determined using the Pierce™ BCA Protein Assay Kit. Data was analyzed using Microsoft Excel.

ALDH1A1 kinetics [9] = substrate: Cc1cc(C=O)c(F)c(F)c1C1=C2C=CC(=O)C=C2[Si](C)(C)c2cc(O)ccc21; assay: ALDH1A1 kinetics; assay type: biochemical, human; details: other: ALDH1A1, identical conditions; pH 7.4
Experimental: as §2

Molecule: Cc1cc(C=O)ccc1C1=C2C=CC(=O)C=C2[Si](C)(C)c2cc(O)ccc21 [Probe 1, 4-(7-Hydroxy-5,5-dimethyl-3-oxo-3,5-dihydrodibenzo[b, e]silin-10-yl)-3-methylbenzaldehyde]
- turn-on response when treated with ALDH1A1 (ALDH1A1 [1]): 1.7 fold
- Enzyme Activity 1A1 (ALDH1A1 [1]): High
- Enzymatic Turn On (ALDH1A1 [1]): 1.7
- Quantum Yield [2]: 0.32
- selectivity ALDH1A1 versus ALDH1A3 (ALDH1A3): no longer selective for ALDH1A1
- Enzyme Activity 1A3 (ALDH1A3): Medium

Molecule: Cc1cc(C=O)c(F)cc1C1=C2C=CC(=O)C=C2[Si](C)(C)c2cc(O)ccc21 [Probe 5, 2-Fluoro-4-(7-hydroxy-5,5-dimethyl-3-oxo-3,5-dihydrodibenzo[b, e]silin-10-yl)-5-methylbenzaldehyde]
- turn-on response when treated with ALDH1A1 (ALDH1A1 [1]): 2.6 fold
- Enzyme Activity 1A1 (ALDH1A1 [1]): High
- Enzymatic Turn On (ALDH1A1 [1]): 2.6
- Quantum Yield [2]: 0.21
- Enzyme Activity 1A3 (ALDH1A3): Low

Molecule: CC(=O)c1ccc(-c2c3cc(F)c(=O)cc-3oc3cc(O)c(F)cc23)c(C)c1 [Ctrl-AlDeSense]
- Turn-on (fold) (ALDH1A1 [3]): 0 fold
- signal in e-CSC versus non-CSC tumors [4]: did not show increased signal
- toxicity in cell viability assay (K562 cells; K562 cells, 6, 12 and 24 hours): non-toxic
- ε [2]: 68000 M⁻¹ cm⁻¹
- λcm ([2]; Table 1): 518 nm
- λabs ([2]; maximum absorbance): 496 nm
- ΦF ([2]; prior to activation): 0.039
- logD (Log D7.4): 0.87
- fluorescence of e-CSC lungs versus non-CSC lungs [5]: not statistically different
- pKa [6]: 4.47

Molecule: C[Si]1(C)C2=CC(=O)C=CC2=C(c2ccc(C=O)cc2[N+](=O)[O-])c2ccc(O)cc21 [Probe 4, 4-(7-Hydroxy-5,5-dimethyl-3-oxo-3,5-dihydrodibenzo[b, e]silin-10-yl)-3-nitrobenzaldehyde]
- Quantum Yield [2]: 0.00

Molecule: C[Si]1(C)C2=CC(=O)C=CC2=C(c2ccc(C=O)cc2F)c2ccc(O)cc21 [Probe 2, 3-Fluoro-4-(7-hydroxy-5,5-dimethyl-3-oxo-3,5-dihydrodibenzo[b, e]silin-10-yl)benzaldehyde]
- stability against water-mediated decomposition of the fluorophore [7]: rapid decomposition

Molecule: C[Si]1(C)C2=CC(=O)C=CC2=C(c2c(F)cc(C=O)cc2F)c2ccc(O)cc21 [Probe 6, 3,5-Difluoro-4-(7-hydroxy-5,5-dimethyl-3-oxo-3,5-dihydrodibenzo[b, e]silin-10-yl)benzaldehyde]
- stability against water-mediated decomposition of the fluorophore [7]: prevent water-mediated decomposition
- turn-on response when treated with ALDH1A1 (ALDH1A1 [1]): 3.9 fold
- Enzyme Activity 1A1 (ALDH1A1 [1]): High
- Enzymatic Turn On (ALDH1A1 [1]): 3.9
- Quantum Yield [2]: 0.13
- selectivity ALDH1A1 versus ALDH1A3 (ALDH1A3): exhibited cross-reactivity with ALDH1A3
- Enzyme Activity 1A3 (ALDH1A3): High

Molecule: CC(=O)c1cc(F)c(C2=C3C=CC(=O)C=C3[Si](C)(C)c3cc(O)ccc32)c(C)c1F [Ctrl-red-AlDeSense, 10-(4-A cetyl-3,6-difluoro-2-methylphenyl)-7-hydroxy-5,5-dimethyldibenzo[b, e]silin-3(5H)-one]
- toxicity in cell viability assay (K562 cells): nontoxic

Molecule: Cc1cc(C(=O)O)ccc1-c1c2cc(F)c(=O)cc-2oc2cc(O)c(F)cc12 [oxidized AlDeSense]
- toxicity in cell viability assay (K562 cells; K562 cells, 6, 12 and 24 hours): non-toxic

Molecule: Cc1c(F)c(C=O)cc(F)c1C1=C2C=CC(=O)C=C2[Si](C)(C)c2cc(O)ccc21 [Probe 8, 2,5-Difluoro-4-(7-hydroxy-5,5-dimethyl-3-oxo-3,5-dihydrodibenzo[b, e]silin-0-yl)-3-methylbenzaldehyde]
- Enzyme Activity 1A1 (ALDH1A1 [1]): High
- Enzymatic Turn On (ALDH1A1 [1]): 3.1
- Quantum Yield [2]: 0.20
- selectivity ALDH1A1 versus ALDH1A3 (ALDH1A3): selectivity was eroded
- Enzyme Activity 1A3 (ALDH1A3): Medium

B1: ALDH1A1 (Homo sapiens) (protein)
chain: MSSSGTPDLPVLLTDLKIQYTKIFINNEWHDSVSGKKFPVFNPATEEELCQVEEGDKEDVDKAVKAARQAFQIGSPWRTMDASERGRLLYKLADLIERDRLLLATMESMNGGKLYSNAYLNDLAGCIKTLRYCAGWADKIQGRTIPIDGNFFTYTRHEPIGVCGQIIPWNFPLVMLIWKIGPALSCGNTVVVKPAEQTPLTALHVASLIKEAGFPPGVVNIVPGYGPTAGAAISSHMDIDKVAFTGSTEVGKLIKEAAGKSNLKRVTLELGGKSPCIVLADADLDNAVEFAHHGVFYHQGQCCIAASRIFVEESIYDEFVRRSVERAKKYILGNPLTPGVTQGPQIDKEQYDKILDLIESGKKEGAKLECGGGPWGNKGYFVQPTVFSNVTDEMRIAKEEIFGPVQQIMKFKSLDDVIKRANNTFYGLSAGVFTKDIDKAITISSALQAGTVWVNCYGVVSAQCPFGGFKMSGNGRELGEYGFHEYTEVKTVTVKISQKNS
notes: made in house
- kcat/Km (ALDH1A1 kinetics [8]): 57700 M⁻¹ s⁻¹
- kcat/Km (ALDH1A1 kinetics [9]): 132000 M⁻¹ s⁻¹
